In patent publication US20130109581A1, “POSITIVELY CHARGED SPECIES AS BINDING REAGENTS IN THE SEPARATION OF PROTEIN AGGREGATES FROM MONOMERS” (priority 2009, published 2013):
“Also recorded” adds a separate entry of the source. Like-named read-outs stand apart in the source and are kept apart here. Where a SMILES comes first, the peptide text is derived from it. [ ]: non-standard residue; d: D form. Ahx = NCCCCCC(=O)O

Columns and labels:
Aβ42 ASPD = target: T1, Aβ42 ASPD (Homo sapiens, UniProt P05067); assay: Misfolded Protein Assay, LoD and capture in CSF: ASPD; type: binding
T1 construct: The Ab42 aggregates were prepared as previously described
Protocol: (§1) The Ab42 aggregates were prepared as previously described: fibrils were prepared per Stine et al (JBC 2003, 278, p11612), globulomers were prepared per Barghorn et al (J Neurology 2005 95 p834), ADDLs were prepared per Lambert et al (PNAS 1998, 95 p6448), and ASPDs were prepared per Noguchi et al (JBC 2009 284 p32895). Normal CSF was pooled from clinically characterized non-demented patient CSF samples. AD CSF was pooled from clinically-characterized AD patient samples. Alzheimer's Disease Brain Homogenate (ADBH) was prepared by sonication of clinically diagnosed AD patient brain samples in 0.2M.sucrose (1:10 w/v).
(§2) For the capture assay (Misfolded Protein Assay), aliquots of the beads (30 ul) were added to wells of a 96 well plate, followed by 125 ul of sample in 80:20 CSF:TBSTT. The plate was sealed and incubated for 1 h at 37 C with shaking. The plate was washed with TBST and the residual buffer removed. A denaturing solution (0.1 N NaOH) was added to each well and the plate heated to 80 C. for 30 min with shaking. After cooling the plate to RT, a neutralizing buffer (0.12 M NaH2PO3-0.4% TW20,) was added and the plate shaken briefly at RT. The assay was analyzed using the triplex Mesoscale Discovery ELISA kit for Aβ. The Aβ in the samples eluted from the beads were detected per the manufacturer's protocol.
(§3) For the Limit of Detection (LoD) studies, serial dilutions of each aggregate were spiked into CSF and were assayed per the protocol described above. The LoD was defined as 2× over background levels.
(§4) This pattern minors the capture selectivity observed when these species are tested with 3 ul of PSR1 beads and 1 ng/mL of aggregate.

Aβ42 Globulomer = target: T2, Aβ42 Globulomer (Homo sapiens, UniProt P05067); assay: Misfolded Protein Assay, LoD and capture in CSF: globulomer; type: binding
T2 construct: beta amyloid (1-42) was monomerized with incubation in hexafluoroisopropanol
Protocol: as §1, §2, §3, §4

[1] = target: T3, Aβ40 aggregates in AD CSF (Homo sapiens, UniProt P05067); assay: Discrimination between AD and normal CSF; type: binding; conditions: FIG. 39
T3 construct: from tissue; host or cells: pooled cerebrospinal fluid (normal or AD)
Protocol: as §1, §2
For discriminating between AD and normal CSF, pooled normal CSF or pooled Alzheimer's Disease patient CSF, were assayed per the protocol described above.

Aβ42 Fibrils = target: T4, Aβ42 Fibrils (Homo sapiens, UniProt P05067); assay: Misfolded Protein Assay, LoD and capture in CSF: fibrils; type: binding
T4 construct: The Ab42 aggregates were prepared as previously described
Protocol: as §1, §2, §3, §4

[2] = system: Alzheimer's Disease Brain Homogenate (ADBH) Aβ aggregates; assay: Misfolded Protein Assay, LoD in CSF: ADBH; type: binding, human; conditions: spiked into CSF; LoD = 2× over background
Protocol: as §1
as §2, with “protocol. […]” for “protocol.”

Aβ42 ADDL = Aβ42 ADDL (Homo sapiens, UniProt P05067); assay: Misfolded Protein Assay, LoD and capture in CSF: ADDL; type: binding
Protocol: as §1, §2, §3, §4

Abeta 42 globulomer = Abeta 42 globulomer (Homo sapiens, UniProt P05067); assay: NMPA with detergent washing after PSR1 pulldown: globulomer detection; type: binding
normal CSF Aβ40 = target: T5, normal CSF Aβ40 (Homo sapiens, UniProt P05067); assay: NMPA with detergent washing: background from CSF, Abeta40; type: binding; conditions: 1% detergent wash after PSR1 pulldown; FIG. 35
T5 construct: from tissue; host or cells: pooled cerebrospinal fluid (normal or AD)
Protocol: Second, two neutral detergents, polyethylene glycol sorbitan monolaurate (available as TWEEN 20 from Sigma-Aldrich, St. Louis, Mo.) and n-tetradecyl-N,N-dimethyl-3-ammonio-1-propanesulfonate (available as ZWITTERGENT 3-14 from EMI) Chemicals, Gibbstown, N.J.) were used to treat the globulomer-spiked CSF samples that had been contacted with PSR1 beads. For each assay, a mixture of 30 μl of PSR1 beads (coated at about 7-12 nmol PSR1 ligand/mg DYNAL beads, which were used in this example and in the following examples unless otherwise stated) and 70 μl of 1×TBSTT was immediately pipetted into each well on the pulldown plate. The liquid was removed on a magnetic separator. Fifty micro liters of 5×TBSTT was added to each well. The beads were suspended by briefly shaking at 750 rpm. Next […] of TBSTT or CSF sample without globulomer was added to each well. The pulldown plate was sealed and incubated at 37° C. for 1 hour with shaking at 500 rpm. After incubation, the beads were washed 8 times with TBST on the plate washer. After the plate wash, residual TBST buffer was removed from the beads on the magnetic separator. […]
(§5) A summary of the assay results and calculated signal/noise is shown below in Table 17.

normal CSF Aβ42 = target: T6, normal CSF Aβ42 (Homo sapiens, UniProt P05067); assay: NMPA with detergent washing: background from unspiked CSF, Abeta42; type: binding; conditions: for detection of normal CSF Aβ42 (background): 1% detergent wash after PSR1 pulldown, FIG. 35
T6 construct: reduced the detection of normal CSF Aβ42 to the background levels; from tissue; host or cells: pooled normal cerebrospinal fluid
Protocol: Second, two neutral detergents, polyethylene glycol sorbitan monolaurate (available as TWEEN 20 from Sigma-Aldrich, St. Louis, Mo.) and n-tetradecyl-N,N-dimethyl-3-ammonio-1-propanesulfonate (available as ZWITTERGENT 3-14 from EMI) Chemicals, Gibbstown, N.J.) were used to treat the globulomer-spiked CSF samples that had been contacted with PSR1 beads. For each assay, a mixture of 30 μl of PSR1 beads (coated at about 7-12 nmol PSR1 ligand/mg DYNAL beads, which were used in this example and in the following examples unless otherwise stated) and 70 μl of 1×TBSTT was immediately pipetted into each well on the pulldown plate. The liquid was removed on a magnetic separator. Fifty micro liters of 5×TBSTT was added to each well. The beads were suspended by briefly shaking at 750 rpm. Next […] of TBSTT or CSF sample without globulomer was added to each well. The pulldown plate was sealed and incubated at 37° C. for 1 hour with shaking at 500 rpm. After incubation, the beads were washed 8 times with TBST on the plate washer. After the plate wash, residual TBST buffer was removed from the beads on the magnetic separator. The beads were then incubated with 100 μl of either TBS, 1% Tween20 or 1% Zwittergent 3-14 for 30 minutes at room temperature at 750 rpm, (followed by an additional 8 washes with TBST on the plate washer. After removing residual TBST on the magnetic separator, 20 μl of denaturing solution, typically 0.1-0.15 N NaOH, was added to the beads. The plate was covered with an aluminum foil plate sealer and incubated at 80° C. for 30 minutes with shaking at 750 rpm. After incubation, the plate was cooled to room temperature and twenty micro liters of neutralizing solution, typically 0.12-0.18 M NaH2PO4+0.4% Tween20) was added into each well and the plate was incubated at room temperature for 5 minutes with shaking at 750 rpm. […] MSD Abeta Triplex Assay was preformed according to the manufacturer's instructions.
as §5

[3] = 3 ul of beads and 1 ng/mL of aggregate
[4] = spiked into CSF, LoD = 2× over background
[5] = CSF, PSR1 beads treated with detergent post capture
[6] = pulldown CSF, PSR1 beads washed with 1% detergent

T6 sequence (P05067 672-713 limits assumed): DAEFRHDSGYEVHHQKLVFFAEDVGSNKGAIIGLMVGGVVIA
Abeta 42 globulomer, sequence (P05067 672-713 limits assumed): as above
T4 sequence (P05067 672-713 limits assumed): as above
Aβ42 ADDL, sequence (P05067 672-713 limits assumed): as above
T1 sequence (P05067 672-713 limits assumed): as above
T2 sequence (P05067 672-713 limits assumed): as above
T3 sequence (P05067 672-711 limits assumed): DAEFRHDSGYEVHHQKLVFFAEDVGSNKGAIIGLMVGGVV
T5 sequence (P05067 672-711 limits assumed): as above

Compound: CC(=O)NC(Cc1ccccc1)C(=O)NC(CCCCN)C(=O)NC(Cc1ccccc1)C(=O)NC(CCCCN)C(=O)NC(CCCCN)C(=O)NC(CCCCN)C(=O)NCCCCCC(=O)NCCCCCC(=O)NC(CS)C(N)=O (stereo not drawn) [Ac-FKFKKK, Ac-FKFKKK-Ahx-Ahx-Cys-NH2] (Ac-FKFKKK[Ahx][Ahx]C-NH2; configuration not given here)
- capture of ASPD (Aβ42 ASPD; [3]): 1321
- LoD (Aβ42 ASPD; [4]): 300 pg/mL
- capture of Globulomer (Aβ42 Globulomer; [3]): 3409
- LoD (Aβ42 Globulomer; [4]): 75 to 120 pg/mL
- Aβ40 signal in pooled AD CSF relative to normal pool [1]: higher Aβ40 signal in positive pooled AD CSF relative to unmatched normal pool; also recorded: largest change in signal
- capture of Fibril (Aβ42 Fibrils; [3]): 4138
- LoD (Aβ42 Fibrils; [4]): 100 pg/mL
- LoD [2]: <10 pg/mL
- capture of ADDL (Aβ42 ADDL; [3]): 1241
- LoD (Aβ42 ADDL; [4]): 300 pg/mL

Compound: Polyethylene glycol sorbitan monolaurate [TW20]
- LoD of globulomer (Cal) (Abeta 42 globulomer): 2.52 pg/mL
- LoD of globulomer, RLU (S/N = 2) (Abeta 42 globulomer): 211 RLU
- S/N at 25.3 pg/mL globulomer (Abeta 42 globulomer): 11.0
- signal/noise of globulomer detection (Abeta 42 globulomer): improved the signal/noise of globulomer detection
- detection of normal CSF Aβ40 (background) (normal CSF Aβ40): reduced the detection of normal CSF Aβ40 significantly
- detection of normal CSF Aβ42 (background) (normal CSF Aβ42): reduced the detection of normal CSF Aβ42 to the background levels observed when PSR1 is incubated with TBSTT buffer alone

Compound: n-Tetradecyl-N,N-dimethyl-3-ammonio-1-propanesulfonate [ZW3-14]
- signal/noise of globulomer detection (Abeta 42 globulomer): improved the signal/noise of globulomer detection; also recorded: improved the signal/noise ratio for Abeta 42 globulomer detection more significantly
- S/N Abeta 42 globulomer-spiked/unspiked (Abeta 42 globulomer; 0.5 ng/mL vs 0 ng/mL globulomer): 7.7
- S/N Abeta 42 globulomer-spiked/Abeta 40 (Abeta 42 globulomer; Abeta 42 RLU at 0.5 ng/mL over average Abeta 40 RLU): 2.2
- Abeta 42 RLU, 0.5 ng/mL Abeta 42 globulomer, Average (Abeta 42 globulomer; [5]): 842.0 RLU
- LoD of globulomer (Cal) (Abeta 42 globulomer; [6]): 2.33 pg/mL
- LoD of globulomer, RLU (S/N = 2) (Abeta 42 globulomer; [6]): 199 RLU
- S/N at 25.3 pg/mL globulomer (Abeta 42 globulomer; [6]): 10.3
- detection of normal CSF Aβ40 (background) (normal CSF Aβ40): reduced the detection of normal CSF Aβ40 significantly
- detection of normal CSF Aβ42 (background) (normal CSF Aβ42): reduced the detection of normal CSF Aβ42 to the background levels observed when PSR1 is incubated with TBSTT buffer alone
- Abeta 42 RLU, 0 ng/mL Abeta 42 globulomer, Average (normal CSF Aβ42; [5]): 110.0 RLU
